Data taken from PubChem BioAssay (NCI).
Several values for one entry are separate records, joined by “and”; a condition that tells them apart may be missing. Equal entries are not always repeated.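 Method: 48-hour compound exposure of cells in 96-well plates, five concentrations, linear interpolation of endpoints. GI50: concentration for 50% inhibition of growth. The concentration for full growth arrest is given as TGI.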

Tests used:
Test in all cases: NCI tumour cell line growth inhibition, 48 h
RXF-631 renal = tested on: RXF-631 renal
KM20L2 colon = tested on: KM20L2 colon
DMS 273 small cell lung = tested on: DMS 273 small cell lung
DLD-1 colon = tested on: DLD-1 colon
LXFL 529 NSCLC = tested on: LXFL 529 NSCLC
M19-MEL melanoma = tested on: M19-MEL melanoma
DMS 114 small cell lung = tested on: DMS 114 small cell lung
P388/ADR leukemia = tested on: P388/ADR leukemia
SN12K1 renal = tested on: SN12K1 renal
MDA-N = tested on: MDA-N
T-47D breast = tested on: T-47D breast

| Compound | TGI (RXF-631 renal) | TGI (KM20L2 colon) | TGI (DMS 273 small cell lung) | TGI (DLD-1 colon) | TGI (LXFL 529 NSCLC) | TGI (M19-MEL melanoma) | TGI (DMS 114 small cell lung) | TGI (P388/ADR leukemia) | TGI (SN12K1 renal) | GI50 (MDA-N) | TGI (MDA-N) | GI50 (T-47D breast) | TGI (T-47D breast) | GI50 (RXF-631 renal) | GI50 (KM20L2 colon) | GI50 (DMS 273 small cell lung) | GI50 (DLD-1 colon) | GI50 (LXFL 529 NSCLC) | GI50 (DMS 114 small cell lung) |
| --- | --- | --- | --- | --- | --- | --- | --- | --- | --- | --- | --- | --- | --- | --- | --- | --- | --- | --- | --- |
| O=C(N/N=C/c1ccccc1O)N/N=C/c1ccccc1O | > 100 µM | > 100 µM | > 100 µM | > 100 µM | > 100 µM | > 100 µM | > 100 µM | – | – | – | – | – | – | – | – | – | – | – | – |
| Cn1c(=O)c(N=Nc2c(=O)n(C)c(=O)n3c2[nH]c2ccccc23)c2[nH]c3ccccc3n2c1=O | > 100 µM | > 100 µM | > 100 µM | > 100 µM | > 100 µM | > 100 µM | > 100 µM | – | – | – | – | – | – | – | – | – | – | – | – |
| CC1CC(C)CC(C)C(O)/C(C#N)=C/C=C/CC(C2CCCC2C(=O)O)OC(=O)CC(O)C(C)C1 (stereo not drawn) | 0.254 µM | 1.43 µM | 0.11 µM | 0.0819 µM | 0.0397 µM | 0.0532 µM | < 0.016 µM | < 0.0143 µM | < 0.0223 µM | 0.0188 µM | 0.0646 µM | 0.00595 µM | 0.049 µM and < 0.0166 µM | – | – | – | – | – | – |
| c1cc[c]([Sn][c]2ccccc2)cc1 | > 100 µM | 18.8 µM | 35.9 µM | 23.2 µM | 33.6 µM | – | > 100 µM | – | – | – | – | – | – | 35.6 µM | 13.4 µM | 16.8 µM | 15.4 µM | 16.8 µM | 32.7 µM |
| CC(=O)OCc1c2ccccc2c(C)c2c1cc(F)c1ccccc12 | 63 µM | 87 µM | 26.4 µM | 64.3 µM | > 100 µM | – | > 100 µM | – | – | – | – | – | – | – | – | – | – | – | – |
| CCOC(=O)NC(=O)c1cn(CCN2CCN(C(=O)NCCCCCCNC(=O)N3CCN(CCn4cc(C(=O)NC(=O)OCC)c(=O)[nH]c4=O)CC3)CC2)c(=O)[nH]c1=O | > 100 µM | > 100 µM | > 100 µM | – | > 100 µM | > 100 µM | > 100 µM | – | – | – | – | – | – | – | – | – | – | – | – |
| COC(=O)/C(=N\NC(C)(C)C)C(C(=O)OC)C(=O)C(=O)Nc1cc(Cl)ccc1Cl (stereo not drawn) | > 100 µM | > 100 µM | > 100 µM | > 100 µM | > 100 µM | > 100 µM | > 100 µM | – | – | – | – | – | – | – | – | – | – | – | – |
| CCc1cccc(C)c1NS(=O)(=O)c1ccccc1 | > 100 µM | > 100 µM | > 100 µM | > 100 µM | > 100 µM | > 100 µM | > 100 µM | – | – | – | – | – | – | – | – | – | – | – | – |
| CN1N=CSC12C(=O)N(c1ccccc1)C(=O)N2c1ccccc1 (stereo not drawn) | > 100 µM | > 100 µM | > 100 µM | > 100 µM | > 100 µM | > 100 µM | > 100 µM | – | – | – | – | – | – | – | – | – | – | – | – |
| O=c1cc(-c2cccs2)[nH]c2cc3c(cc12)OCO3 | > 100 µM | 41.3 µM | > 100 µM | > 100 µM | > 100 µM | > 100 µM | > 24.5 µM | – | – | – | – | – | – | – | – | – | – | – | – |
| Cn1c(=O)nc2n(-c3ccc(O)cc3)c3ccccc3nc-2c1=O | > 100 µM | > 100 µM | > 100 µM | > 100 µM | > 100 µM | 81.1 µM | > 100 µM | – | – | – | – | – | – | – | – | – | – | – | – |
| COC(=O)c1sc(C(=O)OC)c2c1CS(=O)C2 | > 100 µM | > 100 µM | > 100 µM | > 100 µM | > 100 µM | > 100 µM | > 100 µM | – | – | – | – | – | – | – | – | – | – | – | – |
| N#CC(N)=Nc1ccccc1 | > 100 µM | > 100 µM | > 100 µM | > 100 µM | > 100 µM | > 100 µM | 31.1 µM | – | – | – | – | – | – | – | – | – | – | – | – |
| O=C1C2C3C=C4c5ccccc5N(c5ccccc5)C4(C2C(=O)N1c1ccccc1)C1C(=O)N(c2ccccc2)C(=O)C31 (stereo not drawn) | > 100 µM | > 100 µM | – | > 100 µM | > 100 µM | > 100 µM | > 100 µM | – | – | – | – | – | – | – | – | – | – | – | – |
| CCc1c(C#N)c(=O)[nH]c(=O)n1CCN1CCN(C(=O)NCCCCCCNC(=O)N2CCN(CCn3c(CC)c(C#N)c(=O)[nH]c3=O)CC2)CC1 | > 100 µM | > 100 µM | > 100 µM | > 100 µM | > 100 µM | > 100 µM | > 100 µM | – | – | – | – | – | – | – | – | – | – | – | – |
